From US8541588B2, “Sulfonamide derivatives” (Pfizer Limited, priority 2009, dated 2013)

Target: T1, Nav1.7 (or SCN9A) channel; HEK cells stably transfected with hSCN9A (Homo sapiens, UniProt Q15858)
T1 construct: expressed in transfected cells
Assay: Nav1.7 block, PatchXpress 7000 automated whole-cell voltage clamp, estimated IC50 (EIC50)
Type: cell-based
Conditions: estimated IC50, PatchXpress platform

[1] = hSCN9A HEK cells, Examples 283-814
[2] = hSCN9A HEK cells held at V1/2 of inactivation
[3] = hSCN9A HEK cells, Examples 815-1040

T1 sequence (Q15858 whole entry): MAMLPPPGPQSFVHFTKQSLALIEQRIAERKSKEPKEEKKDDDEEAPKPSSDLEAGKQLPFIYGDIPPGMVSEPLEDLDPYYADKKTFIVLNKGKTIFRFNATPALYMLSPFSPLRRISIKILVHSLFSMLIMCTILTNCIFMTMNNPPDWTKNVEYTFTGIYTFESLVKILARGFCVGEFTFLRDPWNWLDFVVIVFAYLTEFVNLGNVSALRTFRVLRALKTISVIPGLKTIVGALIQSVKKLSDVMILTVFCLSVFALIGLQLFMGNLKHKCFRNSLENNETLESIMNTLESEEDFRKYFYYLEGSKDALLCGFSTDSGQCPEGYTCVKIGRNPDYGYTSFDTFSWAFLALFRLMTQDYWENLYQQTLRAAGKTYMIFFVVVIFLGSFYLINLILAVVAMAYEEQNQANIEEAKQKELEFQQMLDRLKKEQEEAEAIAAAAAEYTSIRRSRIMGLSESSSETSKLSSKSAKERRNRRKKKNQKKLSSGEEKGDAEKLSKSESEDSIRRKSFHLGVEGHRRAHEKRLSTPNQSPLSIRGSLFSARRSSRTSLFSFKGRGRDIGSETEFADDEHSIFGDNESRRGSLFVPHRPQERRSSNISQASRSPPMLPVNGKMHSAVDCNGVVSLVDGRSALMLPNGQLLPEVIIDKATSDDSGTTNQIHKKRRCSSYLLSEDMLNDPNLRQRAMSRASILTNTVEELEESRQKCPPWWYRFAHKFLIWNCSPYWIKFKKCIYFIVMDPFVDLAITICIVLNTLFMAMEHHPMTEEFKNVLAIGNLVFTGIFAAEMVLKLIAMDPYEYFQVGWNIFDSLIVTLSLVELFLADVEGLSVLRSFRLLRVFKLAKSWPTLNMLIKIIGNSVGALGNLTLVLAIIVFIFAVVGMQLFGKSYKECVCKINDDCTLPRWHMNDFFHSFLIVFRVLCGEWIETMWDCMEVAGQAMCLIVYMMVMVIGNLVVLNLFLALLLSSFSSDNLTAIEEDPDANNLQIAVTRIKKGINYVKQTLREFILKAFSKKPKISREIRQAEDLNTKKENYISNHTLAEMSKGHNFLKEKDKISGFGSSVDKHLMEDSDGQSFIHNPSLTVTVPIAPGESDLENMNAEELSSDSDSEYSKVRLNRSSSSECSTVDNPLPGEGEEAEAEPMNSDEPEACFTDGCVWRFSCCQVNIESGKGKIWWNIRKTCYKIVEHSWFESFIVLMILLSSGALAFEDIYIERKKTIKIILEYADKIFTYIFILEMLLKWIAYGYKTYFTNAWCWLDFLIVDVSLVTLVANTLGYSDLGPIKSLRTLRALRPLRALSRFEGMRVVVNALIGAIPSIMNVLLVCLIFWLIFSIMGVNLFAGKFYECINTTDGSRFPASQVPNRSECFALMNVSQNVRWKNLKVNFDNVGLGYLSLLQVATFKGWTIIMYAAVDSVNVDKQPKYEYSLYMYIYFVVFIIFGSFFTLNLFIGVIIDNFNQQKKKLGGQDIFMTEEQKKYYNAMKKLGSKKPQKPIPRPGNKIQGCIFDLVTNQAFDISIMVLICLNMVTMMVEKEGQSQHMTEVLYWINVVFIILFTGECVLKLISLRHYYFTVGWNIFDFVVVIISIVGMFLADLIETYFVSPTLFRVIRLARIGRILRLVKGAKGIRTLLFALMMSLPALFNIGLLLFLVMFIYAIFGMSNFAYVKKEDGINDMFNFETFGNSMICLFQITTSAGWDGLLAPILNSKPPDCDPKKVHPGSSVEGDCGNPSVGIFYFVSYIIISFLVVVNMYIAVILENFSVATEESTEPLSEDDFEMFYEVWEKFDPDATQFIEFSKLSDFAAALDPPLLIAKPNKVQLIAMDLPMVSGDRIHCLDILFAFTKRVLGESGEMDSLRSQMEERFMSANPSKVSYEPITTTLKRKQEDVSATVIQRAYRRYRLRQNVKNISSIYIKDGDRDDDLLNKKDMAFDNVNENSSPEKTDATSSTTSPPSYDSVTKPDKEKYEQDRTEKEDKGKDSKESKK

IC50 [1] [nM] | Structure (SMILES) | other results
9.6 | Nc1[nH]ncc1-c1cc(Cl)ccc1Oc1cc(F)c(S(=O)(=O)Nc2ncc(Cl)s2)cc1F [Example 467, 4-[2-(5-amino-1H-pyrazol-4-yl)-4-chlorophenoxy]-N-(5-chloro-1,3-thiazol-2-yl)-2,5-difluorobenzenesulfonamide] | –
2500 | Cc1nnc(NS(=O)(=O)c2ccc(Oc3ccc(Cl)cc3-c3ccnn3C)c(F)c2)s1 [Example 776, 4-[4-chloro-2-(1-methyl-1H-pyrazol-5-yl)phenoxy]-3-fluoro-N-(5-methyl-1,3,4-thiadiazol-2-yl)benzenesulfonamide] | –
– | N#Cc1cc(S(=O)(=O)Nc2ncc(Cl)s2)ccc1Oc1ccccc1-c1ccccc1 [Example 146, 4-(biphenyl-2-yloxy)-N-(5-chloro-1,3-thiazol-2-yl)-3-cyanobenzenesulfonamide] | IC50 [2]: 890 nM
2700 | Cc1cn(C(F)F)nc1-c1ccc(Oc2ccc(S(=O)(=O)Nc3nccs3)cc2C#N)cc1 [Example 471, 3-cyano-4-{4-[1-(difluoromethyl)-4-methyl-1H-pyrazol-3-yl]phenoxy}-N-1,3-thiazol-2-ylbenzenesulfonamide] | –
5.4 | CN1CC(n2nccc2-c2cc(F)ccc2Oc2cc(F)c(S(=O)(=O)Nc3ncns3)cc2Cl)C1 [Example 806, 5-Chloro-2-fluoro-4-{4-fluoro-2-[1-(1-methylazetidin-3-yl)-1H-pyrazol-5-yl]phenoxy}-N-1,2,4-thiadiazol-5-ylbenzenesulfonamide] | –
>3000 | Cc1nnc(-c2ccc(Oc3ccc(S(=O)(=O)Nc4ccc(F)cn4)cc3C#N)cc2)o1 [Example 576, 3-cyano-N-(5-fluoropyridin-2-yl)-4-[4-(5-methyl-1,3,4-oxadiazol-2-yl)phenoxy]benzenesulfonamide] | –
250 | Cn1nccc1-c1cc(Cl)ccc1Oc1ncc(S(=O)(=O)Nc2nccs2)cc1Cl [Example 759, 5-chloro-6-[4-chloro-2-(1-methyl-1H-pyrazol-5-yl)phenoxy]-N-1,3-thiazol-2-ylpyridine-3-sulfonamide] | –
180 | CC(C)c1cc(-c2cc(C(F)(F)F)nn2C)ccc1Oc1ccc(S(=O)(=O)Nc2nccs2)cc1C#N [Example 354, 3-cyano-4-{2-isopropyl-4-[1-methyl-3-(trifluoromethyl)-1H-pyrazol-5-yl]phenoxy}-N-1,3-thiazol-2-ylbenzenesulfonamide] | –
280 | Cn1nccc1-c1cc(Cl)ccc1Oc1cc(F)c(S(=O)(=O)Nc2nncs2)cc1F [Example 301, 4-[4-chloro-2-(1-methyl-1H-pyrazol-5-yl)phenoxy]-2,5-difluoro-N-1,3,4-thiadiazol-2-ylbenzenesulfonamide] | –
– | N#Cc1cc(S(=O)(=O)Nc2cccs2)ccc1Oc1ccccc1-c1ccccc1 [Example 1007, 4-(biphenyl-2-yloxy)-3-cyano-N-2-thienylbenzenesulfonamide] | IC50 [3]: 3300 nM
– | CC(C)c1nn(-c2ccccc2Cl)cc1Oc1ccc(S(=O)(=O)Nc2ncc(Cl)s2)cc1C#N [Example 140, 4-{[1-(2-chlorophenyl)-3-isopropyl-1H-pyrazol-4-yl]oxy}-N-(5-chloro-1,3-thiazol-2-yl)-3-cyanobenzenesulfonamide] | IC50 [2]: 3410 nM
160 | N#Cc1cc(S(=O)(=O)Nc2ncc(Cl)s2)ccc1Oc1ccc(Cl)cc1C1CNC1 [Example 594, 4-(2-Azetidin-3-yl-4-chlorophenoxy)-N-(5-chloro-1,3-thiazol-2-yl)-3-cyanobenzenesulfonamide] | –
– | O=S(=O)(Nc1ccncn1)c1ccc(Oc2ccc(Cl)cc2-c2ccnnc2)c(Cl)c1 [Example 847, 3-chloro-4-(4-chloro-2-pyridazin-4-ylphenoxy)-N-pyrimidin-4-ylbenzenesulfonamide] | IC50 [3]: 130 nM
– | O=S(=O)(Nc1nccs1)c1ccc(Oc2ccc(-c3ccccc3)cc2)c(F)c1 [Example 247, 4-(biphenyl-4-yloxy)-3-fluoro-N-thiazol-2-yl-benzenesulfonamide] | IC50 [2]: 2950 nM
– | O=S(=O)(Nc1ncns1)c1ccc(Oc2cc(C(F)(F)F)nn2-c2ccccc2F)c(F)c1 [Example 255, 3-fluoro-4-[2-(2-fluoro-phenyl)-5-trifluoromethyl-2H-pyrazol-3-yloxy]-N-1,2,4-thiadiazol-5-yl-benzenesulfonamide] | IC50 [2]: 490 nM
– | N#Cc1cc(S(=O)(=O)Nc2nccs2)ccc1Oc1ccc(Cl)cc1-c1ccnn1CC(F)(F)F [Example 177, 4-(4-chloro-2-(1-(2,2,2-trifluoroethyl)-1H-pyrazol-5-yl)phenoxy)-3-cyano-N-(thiazol-2-yl)benzenesulfonamide] | IC50 [2]: 100 nM
620 | CC(C)(C)n1nccc1-c1cc(F)ccc1Oc1ccc(S(=O)(=O)Nc2ncns2)cc1C#N [Example 285, 4-[2-(1-tert-butyl-1H-pyrazol-5-yl)-4-fluorophenoxy]-3-cyano-N-1,2,4-thiadiazol-5-ylbenzenesulfonamide] | –
160 | N#Cc1cc(S(=O)(=O)Nc2nccs2)ccc1Oc1cccc(-c2cc(C(F)(F)F)nn2CCO)c1 [Example 549, 3-cyano-4-{3-[1-(2-hydroxyethyl)-3-(trifluoromethyl)-1H-pyrazol-5-yl]phenoxy}-N-1,3-thiazol-2-ylbenzenesulfonamide] | –

IC50 [1] [nM] | Structure (SMILES) | other results
110 | O=S(=O)(Nc1nncs1)c1cc(Cl)c(Oc2ccc(Cl)cc2C2CCNCC2)cc1F [Example 765, 5-chloro-4-(4-chloro-2-piperidin-4-ylphenoxy)-2-fluoro-N-1,3,4-thiadiazol-2-ylbenzenesulfonamide] | –
15 | N#Cc1cc(S(=O)(=O)Nc2nccs2)ccc1Oc1ccc(C(F)(F)F)cc1-c1cn[nH]c1 [Example 460, 4-(2-(1H-pyrazol-4-yl)-4-(trifluoromethyl)phenoxy)-3-cyano-N-(thiazol-2-yl)benzenesulfonamide] | –
66 | Cn1nccc1-c1ccc(F)cc1Oc1ccc(S(=O)(=O)Nc2nccs2)cc1C#N [Example 542, 3-cyano-4-[5-fluoro-2-(1-methyl-1H-pyrazol-5-yl)phenoxy]-N-1,3-thiazol-2-ylbenzenesulfonamide] | –
40 | Cn1nccc1-c1cc(Br)ccc1Oc1ccc(S(=O)(=O)Nc2ncns2)cc1C#N [Example 501, 4-[4-bromo-2-(1-methyl-1H-pyrazol-5-yl)phenoxy]-3-cyano-N-1,2,4-thiadiazol-5-ylbenzenesulfonamide] | –
– | N#Cc1cc(S(=O)(=O)Nc2ccccc2)ccc1Oc1ccccc1-c1ccccc1 [Example 114, 4-(biphenyl-2-yloxy)-3-cyano-N-phenylbenzenesulfonamide] | IC50 [2]: >10000 nM
1200 | CCc1cc(-n2cccn2)ccc1Oc1ccc(S(=O)(=O)Nc2nccs2)cc1C#N [Example 489, 3-cyano-4-[2-ethyl-4-(1H-pyrazol-1-yl)phenoxy]-N-1,3-thiazol-2-ylbenzenesulfonamide] | –
– | N#Cc1cc(S(=O)(=O)Nc2ncns2)ccc1Oc1ccc(Cl)cc1-c1cccc(CN2CC(CO)(CO)C2)c1 [Example 867, 4-[(3′-{[3,3-bis(hydroxymethyl)azetidin-1-yl]methyl}-5-chlorobiphenyl-2-yl)oxy]-3-cyano-N-1,2,4-thiadiazol-5-ylbenzenesulfonamide] | IC50 [3]: 1.4 nM
140 | COc1ccc(-c2ccnn2C)c(Oc2ccc(S(=O)(=O)Nc3nccs3)cc2C#N)c1 [Example 541, 3-cyano-4-[5-methoxy-2-(1-methyl-1H-pyrazol-5-yl)phenoxy]-N-1,3-thiazol-2-ylbenzenesulfonamide] | –
160 | Cn1nccc1-c1cc(C#N)ccc1Oc1ccc(S(=O)(=O)Nc2nccs2)cc1F [Example 721, 4-[4-Cyano-2-(1-methyl-1H-pyrazol-5-yl)phenoxy]-3-fluoro-N-1,3-thiazol-2-ylbenzenesulfonamide] | –
2900 | N#Cc1cc(S(=O)(=O)Nc2cscn2)ccc1Oc1ccc(Cl)cc1-c1cnn(C(F)F)c1 [Example 394, 4-{4-chloro-2-[1-(difluoromethyl)-1H-pyrazol-4-yl]phenoxy}-3-cyano-N-1,3-thiazol-4-ylbenzenesulfonamide] | –
580 | CC(C)n1cc(-c2cc(Cl)ccc2Oc2ccc(S(=O)(=O)Nc3ncns3)cc2C#N)cn1 [Example 283, 4-[4-chloro-2-(1-isopropyl-1H-pyrazol-4-yl)phenoxy]-3-cyano-N-1,2,4-thiadiazol-5-ylbenzenesulfonamide] | –
– | Cc1cn(Cc2ccccc2)nc1Oc1ccc(S(=O)(=O)Nc2ncns2)cc1C#N [Example 66, 4-[(1-benzyl-4-methyl-1H-pyrazol-3-yl)oxy]-3-cyano-N-1,2,4-thiadiazol-5-ylbenzenesulfonamide] | IC50 [2]: 2660 nM
– | N#Cc1cc(S(=O)(=O)Nc2ncns2)ccc1Oc1ccc(Cl)cc1-c1ccnc(N2CCNCC2)n1 [Example 1030, 4-[4-Chloro-2-(2-piperazin-1-ylpyrimidin-4-yl)phenoxy]-3-cyano-N-1,2,4-thiadiazol-5-ylbenzenesulfonamide] | IC50 [3]: 0.7 nM
160 | Cn1nccc1-c1cc(F)c(F)cc1Oc1ccc(S(=O)(=O)Nc2nccs2)cc1C#N [Example 526, 3-cyano-4-[4,5-difluoro-2-(1-methyl-1H-pyrazol-5-yl)phenoxy]-N-1,3-thiazol-2-ylbenzenesulfonamide] | –
– | N#Cc1cc(S(=O)(=O)Nc2cnoc2)ccc1Oc1ccccc1-c1ccccc1 [Example 108, 4-(biphenyl-2-yloxy)-3-cyano-N-isoxazol-4-ylbenzenesulfonamide] | IC50 [2]: >10000 nM
2600 | Cn1nncc1-c1cc(F)ccc1Oc1cc(F)c(S(=O)(=O)Nc2cscn2)cc1Cl [Example 523, 5-chloro-2-fluoro-4-[4-fluoro-2-(1-methyl-1H-1,2,3-triazol-5-yl)phenoxy]-N-1,3-thiazol-4-ylbenzenesulfonamide] | –
– | Cn1nccc1-c1cc(Br)ccc1Oc1ccc(S(=O)(=O)Nc2nccs2)cc1F [Example 226, 4-(4-bromo-2-(1-methyl-1H-pyrazol-5-yl)phenoxy)-3-fluoro-N-(thiazol-2-yl)benzenesulfonamide] | IC50 [2]: 30 nM
6900 | N#Cc1cc(S(=O)(=O)Nc2ccc(F)cn2)ccc1Oc1ccccc1-c1nnco1 [Example 580, 3-cyano-N-(5-fluoropyridin-2-yl)-4-[2-(1,3,4-oxadiazol-2-yl)phenoxy]benzenesulfonamide] | –
